PMC11861906, “Structural basis for lipid-mediated activation of G protein-coupled receptor GPR55” (Nature Communications, 2025)

Experiments:
Format in all cases: cell-based
[1] = target: GPR55 cryo-EM construct (Gα13) (Homo sapiens, UniProt Q9Y2T6); experiment: BRET² G protein dissociation assay, GPR55 cryo-EM construct (GFP G67A) with Gα13; settings: Cryo-EM-G67A-G13
Source text: (§1) To validate the functionality of the GPR55 cryo-EM construct, we conducted bioluminescence resonance energy transfer 2 (BRET²)-based G protein dissociation assays[46],[47] using an engineered heterotrimeric G13 protein. The N-terminal GFP fusion of the receptor was additionally modified with a G67A mutation to disrupt fluorescence properties. We employed human embryonic kidney (HEK) cells overexpressing wt or mutant GPR55 together with Gβ3, Gγ9-GFP, and Gα13 tagged with Renilla luciferase 8 (Rluc8).
(§2) G protein dissociation assays were performed according to the original protocols of the TRUPATH BRET² assay[47],[87] but with subtle modifications as previously described[61],[88],[89]. All reagents and cells were obtained from Thermo Fisher Scientific unless indicated otherwise. The coding sequences for the G protein biosensors[47] (Gα12-Rluc8, Gα13-Rluc8, wt Gβ3, and Gγ9-GFP), the wt GPR55, the construct used for cryo-EM (with GFP bearing a G67A mutation to disrupt fluorescence properties[48] for BRET² assays), GPR55 binding pocket mutants (G152^4.56F, G152^4.56W, N171^ECL2Q, N171^ECL2A, T176^5.33A, R253^6.62A), and the wt TBXA2R were codon-optimized for Homo sapiens, gene-synthesized, and sub-cloned into pcDNA^TM3.1(+) between NheI and HindIII restriction sites by GeneArt (Thermo Fisher Scientific). […] Freshly grown cells were washed with Dulbecco’s Balanced Salt Solution (DPBS, cat. #14200075) and detached using trypsin-ethylenediaminetetraacetic acid (trypsin-EDTA) (cat. #25300-062). Then, the cells were reconstituted to 500,000 cells per mL with fresh medium, and 1,000,000 cells were seeded into each well of a 6-well plate. After 3 h incubation at 37 °C and 5% CO2, adherent cells were transfected with 600 ng DNA (1:1:1:1 ratio of plasmid DNA for GPR55, wt Gβ3, Gγ9-GFP, and Gα12-Rluc8 or Gα13-Rluc8). Plasmid DNA was mixed with 1.5 µL Lipofectamine^TM 2000 (cat. #11668027) in Opti-MEM^TM medium (cat. #31985062) and incubated for 20 min. Then, the mixture was added to each well of the 6-well plate following 24 h incubation at 37 °C and 5% CO2. Transfected cells were washed with DPBS, detached using EDTA (Versene, cat. #15040066), and reconstituted into fresh medium at 500,000 cells mL^−1. From this suspension, 50,000 cells were seeded into each well of a white-bottom 96-well plate (Nunc^TM MicroWell^TM 96 wells, cat. #136101) following overnight incubation at 37 °C and 5% CO2. Then, the adherent cells were washed with assay medium [Hank’s balanced salt solution (HBSS, cat. #14065056) plus 20 mM HEPES pH 7.4 (cat. #15630056)] and finally reconstituted into 50 µL of the same medium. […] Methoxy e-Coelenterazine was used as luciferase substrate (Prolume Purple, NanoLight Technology, cat. #369), reconstituted at 1 mM in methanol and diluted to 37.5 µM with assay buffer (7.5 µM final assay concentration). The assay was started by the addition of 20 µL luciferase substrate to each well of the assay plate using a Multidrop^TM Combi reagent dispenser (Thermo Fisher Scientific), followed by 5 min incubation at room temperature. Then, 30 µL of agonist dilutions or DMSO control was added (final DMSO concentration 1.5%), followed by an additional 5 min incubation at room temperature. BRET² measurements were performed with a PHERAstar® FSX microplate reader (BMG LABTECH) using a BRET² filter (donor emission 370–450 nm, acceptor emission 500–530 nm) at the maximum fluorescence gain of 3600. BRET² ratios were calculated by dividing GFP emission signals from Rluc8 emission counts. Buffer-DMSO controls were subtracted from each data point to calculate ΔBRET² ratios.

[2] = target: GPR55 mutant N171Q (Gα13) (Homo sapiens, UniProt Q9Y2T6, N171Q); experiment: BRET² G protein dissociation assay, GPR55 N171Q with Gα13
Source text: as §1, §2

wt GPR55 (Gα13) = wt GPR55 (Gα13) (Homo sapiens, UniProt Q9Y2T6); experiment: BRET² G protein dissociation assay, wt GPR55 with Gα13; settings: wt GPR55, Gα13
Source text: as §1, §2

[3] = target: GPR55 mutant G152W (Gα13) (Homo sapiens, UniProt Q9Y2T6, G152W); experiment: BRET² G protein dissociation assay, GPR55 G152W with Gα13
Source text: as §1, §2

[4] = target: GPR55 mutant N171A (Gα13) (Homo sapiens, UniProt Q9Y2T6, N171A); experiment: BRET² G protein dissociation assay, GPR55 N171A with Gα13
Source text: as §1, §2

CCCCC[C@H](O)/C=C/[C@@H]1[C@@H](C/C=C\CCCC(=O)O)[C@H]2CO[C@@H]1C2 [U-46619]
BRET2 response, Mean (plotted, Fig. S4) ([1]; concentration 10 pM): 0.00025 | BRET2 response, Mean (plotted, Fig. S4) ([1]; concentration 30 pM): -0.003725 | BRET2 response, Mean (plotted, Fig. S4) ([1]; concentration 100 pM): -0.000225 | BRET2 response, Mean (plotted, Fig. S4) ([1]; concentration 300 pM): 0.0002 | BRET2 response, Mean (plotted, Fig. S4) ([1]; concentration 1e-9 M): -7.5e-5 | BRET2 response, Mean (plotted, Fig. S4) ([1]; concentration 3e-9 M): 0.0017 | BRET2 response, Mean (plotted, Fig. S4) ([1]; concentration 1e-8 M): -0.0133 | BRET2 response, Mean (plotted, Fig. S4) ([1]; concentration 3e-8 M): 0.000825 | BRET2 response, Mean (plotted, Fig. S4) ([1]; concentration 1e-7 M): 0.0026 | BRET2 response, Mean (plotted, Fig. S4) ([1]; concentration 3e-7 M): 0.003275 | BRET2 response, Mean (plotted, Fig. S4) ([1]; concentration 1e-6 M): 0.00345 | Mean (plotted) BRET² response, GPR55-N171Q-G13 ([2]; Concentration 10 pM): 0.0013 | Mean (plotted) BRET² response, GPR55-N171Q-G13 ([2]; Concentration 30 pM): 0.00095 | Mean (plotted) BRET² response, GPR55-N171Q-G13 ([2]; Concentration 100 pM): 0.00685 | Mean (plotted) BRET² response, GPR55-N171Q-G13 ([2]; Concentration 300 pM): -0.0003198 | Mean (plotted) BRET² response, GPR55-N171Q-G13 ([2]; Concentration 1e-9 M): 0.003698 | Mean (plotted) BRET² response, GPR55-N171Q-G13 ([2]; Concentration 3e-9 M): 0.002984 | Mean (plotted) BRET² response, GPR55-N171Q-G13 ([2]; Concentration 1e-8 M): -0.00933 | Mean (plotted) BRET² response, GPR55-N171Q-G13 ([2]; Concentration 3e-8 M): 0.006599 | Mean (plotted) BRET² response, GPR55-N171Q-G13 ([2]; Concentration 1e-7 M): 0.005054 | Mean (plotted) BRET² response, GPR55-N171Q-G13 ([2]; Concentration 3e-7 M): 0.005811 | Mean (plotted) BRET² response, GPR55-N171Q-G13 ([2]; Concentration 1e-6 M): 0.005259 | Mean (plotted) BRET² response, GPR55-N171Q-G13 ([2]; Concentration 3e-6 M): -0.001778 | Mean (plotted) BRET² response, GPR55-N171Q-G13 ([2]; Concentration 1e-5 M): 0.001984 | Mean (plotted) BRET² response, GPR55-N171Q-G13 ([2]; Concentration 3e-5 M): -0.005542 | G protein activation at GPR55-transfected cells (in words) (wt GPR55 (Gα13)): inactive | Mean (plotted) BRET² response, GPR55-G152W-G13 ([3]; Concentration 10 pM): 0.00225 | Mean (plotted) BRET² response, GPR55-G152W-G13 ([3]; Concentration 30 pM): -0.00435 | Mean (plotted) BRET² response, GPR55-G152W-G13 ([3]; Concentration 100 pM): -0.00495 | Mean (plotted) BRET² response, GPR55-G152W-G13 ([3]; Concentration 300 pM): -0.0004516 | Mean (plotted) BRET² response, GPR55-G152W-G13 ([3]; Concentration 1e-9 M): -0.001887 | Mean (plotted) BRET² response, GPR55-G152W-G13 ([3]; Concentration 3e-9 M): 7.154e-5 | Mean (plotted) BRET² response, GPR55-G152W-G13 ([3]; Concentration 1e-8 M): -0.01413 | Mean (plotted) BRET² response, GPR55-G152W-G13 ([3]; Concentration 3e-8 M): -6.439e-5 | Mean (plotted) BRET² response, GPR55-G152W-G13 ([3]; Concentration 1e-7 M): 0.001032 | Mean (plotted) BRET² response, GPR55-G152W-G13 ([3]; Concentration 3e-7 M): 0.002926 | Mean (plotted) BRET² response, GPR55-G152W-G13 ([3]; Concentration 1e-6 M): -0.00228 | Mean (plotted) BRET² response, GPR55-G152W-G13 ([3]; Concentration 3e-6 M): -0.002139 | Mean (plotted) BRET² response, GPR55-G152W-G13 ([3]; Concentration 1e-5 M): -0.008827 | Mean (plotted) BRET² response, GPR55-G152W-G13 ([3]; Concentration 3e-5 M): -0.0048 | Mean (plotted) BRET² response, GPR55-N171A-G13 ([4]; Concentration 10 pM): 0.0067 | Mean (plotted) BRET² response, GPR55-N171A-G13 ([4]; Concentration 30 pM): 0.0022 | Mean (plotted) BRET² response, GPR55-N171A-G13 ([4]; Concentration 100 pM): 0.008 | Mean (plotted) BRET² response, GPR55-N171A-G13 ([4]; Concentration 300 pM): -0.003007 | Mean (plotted) BRET² response, GPR55-N171A-G13 ([4]; Concentration 1e-9 M): 0.003546 | Mean (plotted) BRET² response, GPR55-N171A-G13 ([4]; Concentration 3e-9 M): 0.00299 | Mean (plotted) BRET² response, GPR55-N171A-G13 ([4]; Concentration 1e-8 M): -0.006252 | Mean (plotted) BRET² response, GPR55-N171A-G13 ([4]; Concentration 3e-8 M): 0.007492 | Mean (plotted) BRET² response, GPR55-N171A-G13 ([4]; Concentration 1e-7 M): 0.005274 | Mean (plotted) BRET² response, GPR55-N171A-G13 ([4]; Concentration 3e-7 M): 0.006727 | Mean (plotted) BRET² response, GPR55-N171A-G13 ([4]; Concentration 1e-6 M): 0.007007 | Mean (plotted) BRET² response, GPR55-N171A-G13 ([4]; Concentration 3e-6 M): 0.002553 | Mean (plotted) BRET² response, GPR55-N171A-G13 ([4]; Concentration 1e-5 M): -0.002868 | Mean (plotted) BRET² response, GPR55-N171A-G13 ([4]; Concentration 3e-5 M): -0.004916
